Laboratory results as given in US12162872B2, “Cycloalkylurea derivative” (Sumitomo Pharma Co., Ltd., priority 2019, dated 2024).

Each molecule was assayed against T1, Human orexin receptor type 2 (Homo sapiens, UniProt O43614) (assay: Test 2: Evaluation of agonist activity for orexin receptor type 2 (aequorin luminescence, intracellular calcium mobilization in CHO cells)). Conditions: relative percentage of luminescence for the luminescence (100%) of Orexin A (100 pM); CHO cells transiently expressing human orexin receptor type 2 and apoaequorin; Orexin A Lot. 671009.
T1 construct: expressed in transfected cells; host or cells: CHO cells (transient expression)
T1 sequence (O43614 1-444): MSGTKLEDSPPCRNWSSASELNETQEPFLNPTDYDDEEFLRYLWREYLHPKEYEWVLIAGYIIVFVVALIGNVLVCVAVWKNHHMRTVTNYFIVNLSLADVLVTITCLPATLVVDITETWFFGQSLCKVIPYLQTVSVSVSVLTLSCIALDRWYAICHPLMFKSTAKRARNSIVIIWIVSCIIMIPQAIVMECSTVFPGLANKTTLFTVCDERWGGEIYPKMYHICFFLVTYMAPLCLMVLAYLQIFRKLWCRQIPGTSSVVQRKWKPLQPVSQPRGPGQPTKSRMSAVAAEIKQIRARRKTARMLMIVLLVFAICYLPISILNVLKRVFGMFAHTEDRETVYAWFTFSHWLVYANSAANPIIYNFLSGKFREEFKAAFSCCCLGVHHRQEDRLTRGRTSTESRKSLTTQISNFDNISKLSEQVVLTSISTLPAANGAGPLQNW
Format: cell-based
Description: Test 2: Evaluation of Agonist Activity for Orexin Receptor Type 2
Human orexin receptor type 2 and apoaequorin were transiently expressed in CHO cells, and the agonist activity was evaluated based on intracellular calcium mobilization with ligand stimulation. The CHO cells transiently-expressed human orexin receptor type 2 and apoaequorin were seeded on a 384-well plate by 2,000 cells/well, and then incubated for 16-22 hours. After the plate was returned to room temperature, Coelenterazine hcp (final concentration: 1 μM) was added to the plate, and the plate was allowed to stand at room temperature for 2 hours. And then, Orexin A (PEPTIDE INSTITUTE, INC., Lot. 671009) or each test compound was added to the plate, and the luminescence of the cells was measured with FDSS7000 (Hamamatsu Photonics K.K.), wherein Orexin A and each test compound were dissolved in DMSO (final concentration: 0.1%), and diluted with a buffer (Hanks, 20 mM HEPES, 0.1% BSA). The agonist activity of each test compound for orexin receptor type 2 was calculated as relative percentage of luminescence for the luminescence (100%) of Orexin A (100 pM).

Structure (SMILES) | agonist activity (%)
CC(C)N1CCN([C@H]2CCCC(C)(C)[C@@H]2NC(=O)N2CCC(C)(c3noc(C4CC4)n3)CC2)CC1 [Example 147, 4-(5-cyclopropyl-1,2,4-oxadiazol-3-yl)-N-{(1S,6S)-2,2-dimethyl-6-[4-(propan-2-yl)piperazin-1-yl]cyclohexyl}-4-methylpiperidine-1-carboxamide] | 373%
CC(C)N1CCN(C(=O)[C@H]2CCCC(F)(F)[C@@H]2NC(=O)N2CCC(C)(c3noc([C@@H]4C[C@@H]4F)n3)CC2)CC1 [Example 132, N-{(1R,6S)-2,2-difluoro-6-[4-(propan-2-yl)piperazine-1-carbonyl]cyclohexyl}-4-{5-[(1S,2S)-2-fluorocyclopropyl]-1,2,4-oxadiazol-3-yl}-4-methylpiperidine-1-carboxamide] | 166%
CC(C)CN1CC[C@H](O[C@H]2CCCC(F)(F)[C@@H]2NC(=O)N2CCC(C)(c3noc(C4CC4)n3)CC2)C1 [Example 116, 4-(5-cyclopropyl-1,2,4-oxadiazol-3-yl)-N-[(1R,6S)-2,2-difluoro-6-{[(3S)-1-(2-methylpropyl)pyrrolidin-3-yl]oxy}cyclohexyl]-4-methylpiperidine-1-carboxamide] | 488%
CC(C)N1CCC(O[C@H]2CCCC(F)(F)[C@@H]2NC(=O)N2CCC(C)(c3noc(C4CC4)n3)CC2)CC1 [Example 84, 4-(5-cyclopropyl-1,2,4-oxadiazol-3-yl)-N-[(1R,6S)-2,2-difluoro-6-{[1-(propan-2-yl)piperidin-4-yl]oxy}cyclohexyl]-4-methylpiperidine-1-carboxamide] | 372%
CC(C)Cc1cn([C@H]2CCCC(F)(F)[C@@H]2NC(=O)N2CCC(C)(c3noc([C@@H]4C[C@@H]4F)n3)CC2)nn1 [Example 94, N-{(1R,6S)-2,2-difluoro-6-[4-(2-methylpropyl)-1H-1,2,3-triazol-1-yl]cyclohexyl}-4-{5-[(1S,2S)-2-fluorocyclopropyl]-1,2,4-oxadiazol-3-yl}-4-methylpiperidine-1-carboxamide] | 382%
CC(C)N1CCC(C)(O[C@H]2CCCC(F)(F)[C@@H]2NC(=O)N2CCC(C)(c3noc([C@@H]4C[C@@H]4F)n3)CC2)CC1 [Example 109, N-[(1R,6S)-2,2-difluoro-6-{[4-methyl-1-(propan-2-yl)piperidin-4-yl]oxy}cyclohexyl]-4-{5-[(1S,2S)-2-fluorocyclopropyl]-1,2,4-oxadiazol-3-yl}-4-methylpiperidine-1-carboxamide] | 359%
CC(C)c1nccc(O[C@H]2CCCC(F)(F)[C@@H]2NC(=O)N2CCC(C)(c3noc([C@@H]4C[C@@H]4F)n3)CC2)n1 [Example 92, N-[(1R,6S)-2,2-difluoro-6-{[2-(propan-2-yl)pyrimidin-4-yl]oxy}cyclohexyl]-4-{5-[(1S,2S)-2-fluorocyclopropyl]-1,2,4-oxadiazol-3-yl}-4-methylpiperidine-1-carboxamide] | 16%
CC(C)N1C[C@@H]2[C@H](C1)[C@H]2O[C@H]1CCCC(F)(F)[C@@H]1NC(=O)N1CCC(C)(c2noc([C@@H]3C[C@@H]3F)n2)CC1 [Example 106, N-[(1R,6S)-2,2-difluoro-6-{[(1R,5S,6S)-3-(propan-2-yl)-3-azabicyclo[3.1.0]hexan-6-yl]oxy}cyclohexyl]-4-{5-[(1S,2S)-2-fluorocyclopropyl]-1,2,4-oxadiazol-3-yl}-4-methylpiperidine-1-carboxamide] | 220%
CC(C)N1CC[C@H](O[C@H]2CCCC(F)(F)[C@@H]2NC(=O)N2CCC(C)(c3noc(C4CCC4)n3)CC2)C1 [Example 102, 4-(5-cyclobutyl-1,2,4-oxadiazol-3-yl)-N-[(1R,6S)-2,2-difluoro-6-{[(3S)-1-(propan-2-yl)pyrrolidin-3-yl]oxy}cyclohexyl]-4-methylpiperidine-1-carboxamide] | 374%
CC(C)N1CCN([C@H]2CCCC(F)(F)[C@@H]2N(C)C(=O)N2CCC(C)(c3noc([C@@H]4C[C@@H]4F)n3)CC2)CC1 [Example 146, N-{(1R,6S)-2,2-difluoro-6-[4-(propan-2-yl)piperazin-1-yl]cyclohexyl}-4-{5-[(1S,2S)-2-fluorocyclopropyl]-1,2,4-oxadiazol-3-yl}-N,4-dimethylpiperidine-1-carboxamide] | 23%

Continued, values first:

agonist activity (%) | Structure (SMILES)
402% | CC(C)CN(C)[C@H]1CCN([C@H]2CCCC(F)(F)[C@@H]2NC(=O)N2CCC(C)(c3noc([C@@H]4C[C@@H]4F)n3)CC2)C1 [Example 128, N-[(1R,6S)-2,2-difluoro-6-{(3S)-3-[methyl(2-methylpropyl)amino]pyrrolidin-1-yl}cyclohexyl]-4-{5-[(1S,2S)-2-fluorocyclopropyl]-1,2,4-oxadiazol-3-yl}-4-methylpiperidine-1-carboxamide]
346% | CN(CC1(F)CC1)C1CCN([C@H]2CCCC(F)(F)[C@@H]2NC(=O)N2CCC(C)(c3noc([C@@H]4C[C@@H]4F)n3)CC2)CC1 [Example 136, N-[(1R,6S)-2,2-difluoro-6-(4-{[(1-fluorocyclopropyl)methyl](methyl)amino}piperidin-1-yl)cyclohexyl]-4-{5-[(1S,2S)-2-fluorocyclopropyl]-1,2,4-oxadiazol-3-yl}-4-methylpiperidine-1-carboxamide]
456% | CN(CC1(C)CC1)C1CCN([C@H]2CCCC(F)(F)[C@@H]2NC(=O)N2CCC(C)(c3noc([C@@H]4C[C@@H]4F)n3)CC2)CC1 [Example 134, N-[(1R,6S)-2,2-difluoro-6-(4-{methyl[(1-methylcyclopropyl)methyl]amino}piperidin-1-yl)cyclohexyl]-4-{5-[(1S,2S)-2-fluorocyclopropyl]-1,2,4-oxadiazol-3-yl}-4-methylpiperidine-1-carboxamide]
376% | CN(CC1CC1)[C@H]1CCN([C@H]2CCCC(F)(F)[C@@H]2NC(=O)N2CCC(C)(c3noc([C@@H]4C[C@@H]4F)n3)CC2)C1 [Example 137, N-[(1R,6S)-6-{(3S)-3-[(cyclopropylmethyl)(methyl)amino]pyrrolidin-1-yl}-2,2-difluorocyclohexyl]-4-{5-[(1S,2S)-2-fluorocyclopropyl]-1,2,4-oxadiazol-3-yl}-4-methylpiperidine-1-carboxamide]
447% | CC(C)N1CC[C@H](N(C)[C@H]2CCCC(F)(F)[C@@H]2NC(=O)N2CCC(C)(c3noc([C@@H]4C[C@@H]4F)n3)CC2)C1 [Example 95, N-[(1R,6S)-2,2-difluoro-6-{methyl[(3S)-1-(propan-2-yl)pyrrolidin-3-yl]amino}cyclohexyl]-4-{5-[(1S,2S)-2-fluorocyclopropyl]-1,2,4-oxadiazol-3-yl}-4-methylpiperidine-1-carboxamide]
493% | CC(C)N(C)[C@H]1CCN([C@H]2CCCC(F)(F)[C@@H]2NC(=O)N2CCC(C)(c3noc([C@@H]4C[C@@H]4F)n3)CC2)C1 [Example 96, N-[(1R,6S)-2,2-difluoro-6-{(3S)-3-[methyl(propan-2-yl)amino]pyrrolidin-1-yl}cyclohexyl]-4-{5-[(1S,2S)-2-fluorocyclopropyl]-1,2,4-oxadiazol-3-yl}-4-methylpiperidine-1-carboxamide]
376% | CC(C)N(C)[C@@H]1CCN([C@H]2CCCC(F)(F)[C@@H]2NC(=O)N2CCC(C)(c3noc([C@@H]4C[C@@H]4F)n3)CC2)C1 [Example 112, N-[(1R,6S)-2,2-difluoro-6-{(3R)-3-[methyl(propan-2-yl)amino]pyrrolidin-1-yl}cyclohexyl]-4-{5-[(1S,2S)-2-fluorocyclopropyl]-1,2,4-oxadiazol-3-yl}-4-methylpiperidine-1-carboxamide]
419% | CN(CC1CC1)C1CN([C@H]2CCCC(F)(F)[C@@H]2NC(=O)N2CCC(C)(c3noc([C@@H]4C[C@@H]4F)n3)CC2)C1 [Example 149, N-[(1R,6S)-6-{3-[(cyclopropylmethyl)(methyl)amino]azetidin-1-yl}-2,2-difluorocyclohexyl]-4-{5-[(1S,2S)-2-fluorocyclopropyl]-1,2,4-oxadiazol-3-yl}-4-methylpiperidine-1-carboxamide]
249% | CN(CC1(C(F)(F)F)CC1)C1CCN([C@H]2CCCC(F)(F)[C@@H]2NC(=O)N2CCC(C)(c3noc([C@@H]4C[C@@H]4F)n3)CC2)CC1 [Example 140, N-{(1R,6S)-2,2-difluoro-6-[4-(methyl{[1-(trifluoromethyl)cyclopropyl]methyl}amino)piperidin-1-yl]cyclohexyl}-4-{5-[(1S,2S)-2-fluorocyclopropyl]-1,2,4-oxadiazol-3-yl}-4-methylpiperidine-1-carboxamide]
